One assay has as its system M. smegmatis WT (SMR5). As to the kind of experiment: microbe, parasite or virus in culture. The format is cell-based. As to conditions: for MIC: Mycolicibacterium smegmatis.
A further assay concerns wild-type M. bovis BCG. As to the kind of experiment: microbe, parasite or virus in culture. The format is cell-based. As to conditions: for MIC: Mycobacterium tuberculosis variant bovis BCG, BCG, read-out: MIC WT.
The subject of assay [1] is M. smegmatis ΔmspA mutant MN01. As to conditions: ΔmspA mutant compared with wild-type M. smegmatis; cited from earlier work.
Assay [2] has as its system M. smegmatis ms3747 mutant ML77. The format is cell-based. As to conditions: ms3747 mutant versus wt M. smegmatis.
A further assay concerns E. coli. Particulars: cited from earlier work.
For another assay, the system named is M. tuberculosis. In words: Minimal inhibitory concentration of copper on Hartmans de Bond medium. The class given is cell-based.
For assay [3], the system named is M. smegmatis SMR5 wt (pMS2) and rv0194-expressing strain (pML655). The class given is cell-based.
Assay [4] deals with M. smegmatis SMR5 with rv0194 expression vector pML655. The class given is cell-based.

The text below walks through data of patent US20110160123A1, “TARGETING THE EFFLUX SYSTEMS OF MYCOBACTERIUM TUBERCULOSIS” (THE UAB RESEARCH FOUNDATION, priority 2008, published 2011).

Converted amounts (≈) assume the structure as drawn. Like-named read-outs stand apart in the source and are kept apart here.

As for `CC1(C)S[C@@H]2[C@H](NC(=O)[C@H](N)c3ccccc3)C(=O)N2[C@H]1C(=O)O` [Ampicillin], the MIC with M. smegmatis WT (SMR5) (read-out: MIC WT) turned out to be 125 µg/mL (≈ 358 µM); in the assay on wild-type M. bovis BCG, 62.5 µg/mL (≈ 179 µM). In assay [1], the “increased resistance toward ampicillin” value is 16 fold.
For the compound `O=C(N[C@H](CO)[C@H](O)c1ccc([N+](=O)[O-])cc1)C(Cl)Cl` [Chloramphenicol], the MIC in the assay on M. smegmatis WT (SMR5) (read-out: MIC WT) came to 32 µg/mL (≈ 99 µM); in the assay on wild-type M. bovis BCG it was 8 µg/mL (≈ 24.8 µM).
Take `CC[C@H]1OC(=O)[C@H](C)[C@@H](O[C@H]2C[C@@](C)(OC)[C@@H](O)[C@H](C)O2)[C@H](C)[C@@H](O[C@@H]2O[C@H](C)C[C@H](N(C)C)[C@H]2O)[C@](C)(O)C[C@@H](C)C(=O)[C@H](C)[C@@H](O)[C@]1(C)O` [Erythromycin]: in the assay with M. smegmatis WT (SMR5) (read-out: MIC WT), the MIC came to 2.5 µg/mL (≈ 3.41 µM).
As for `CO[C@@H]1[C@@H](OC(N)=O)[C@@H](O)[C@H](Oc2ccc3c(O)c(NC(=O)c4ccc(O)c(CC=C(C)C)c4)c(=O)oc3c2C)OC1(C)C` [Novobiocin], the MIC in the assay with M. smegmatis WT (SMR5) (read-out: MIC WT) came to 4 µg/mL (≈ 6.53 µM).
Consider `[H]/N=C(/N)N[C@H]1[C@H](O)[C@@H](O)[C@H](O[C@@H]2O[C@@H](C)[C@](O)(C=O)[C@H]2O[C@@H]2O[C@@H](CO)[C@H](O)[C@@H](O)[C@@H]2NC)[C@@H](N/C(N)=N\[H])[C@@H]1O` [Streptomycin], for which the MIC in the assay with wild-type M. bovis BCG was found to be 0.5 µg/mL (≈ 0.86 µM).
With `CN(C)[C@@H]1C(=O)C(C(N)=O)=C(O)[C@@]2(O)C(=O)C3=C(O)c4c(O)cccc4[C@@](C)(O)[C@H]3C[C@@H]12` [Tetracyclin], the entries for the “MIC WT” value against M. smegmatis WT (SMR5) and with wild-type M. bovis BCG were 0.3 µg/mL (≈ 0.675 µM) and 2 µg/mL (≈ 4.5 µM), respectively.
For `CN[C@H](CC(C)C)C(=O)N[C@H]1C(=O)N[C@@H](CC(N)=O)C(=O)N[C@H]2C(=O)N[C@H]3C(=O)N[C@H](C(=O)N[C@H](C(=O)O)c4cc(O)cc(O)c4-c4cc3ccc4O)[C@H](O)c3ccc(c(Cl)c3)Oc3cc2cc(c3O[C@@H]2O[C@H](CO)[C@@H](O)[C@H](O)[C@H]2O[C@H]2C[C@](C)(N)[C@H](O)[C@H](C)O2)Oc2ccc(cc2Cl)[C@H]1O` [Vancomycin], the MIC in the assay on M. smegmatis WT (SMR5) (read-out: MIC WT) was found to be 1.25 µg/mL (≈ 0.863 µM); in the assay on wild-type M. bovis BCG, 5 µg/mL (≈ 3.45 µM).
In the case of `[Cu]` [copper], in assay [2], the “copper concentration affecting growth, mutant relative to wt” value is on record as “four-fold lower”. Besides, the results for the “minimal inhibitory concentration of copper” value in the assay with E. coli and in the assay on M. tuberculosis were “≈ 3 mM” and “less than 24 μM”, respectively.
Turning to `CC[n+]1c(-c2ccccc2)c2cc(N)ccc2c2ccc(N)cc21` [ethidium bromide], the MIC in the assay with M. smegmatis WT (SMR5) (read-out: MIC of ethidium bromide) amounted to 1.25 µg/mL.
As for `COC(=O)[C@H]1[C@H]2C[C@@H]3c4[nH]c5cc(OC)ccc5c4CCN3C[C@H]2C[C@@H](OC(=O)c2cc(OC)c(OC)c(OC)c2)[C@@H]1OC` [reserpine], the “growth with reserpine in the presence of ethidium bromide” value in assay [3] is on record as “completely inhibited growth of both strains”. The “accumulation of ethidium bromide after addition of reserpine” value in assay [4] is “quickly reached levels observed for wt M. smegmatis”.
